{"source": "patent US20130116267A1", "about": "(priority 2010, published 2013)", "key": {"[1]": {"biological_target": "PI3K p110 delta (Homo sapiens, UniProt O00329)", "sequence (O00329 whole entry)": "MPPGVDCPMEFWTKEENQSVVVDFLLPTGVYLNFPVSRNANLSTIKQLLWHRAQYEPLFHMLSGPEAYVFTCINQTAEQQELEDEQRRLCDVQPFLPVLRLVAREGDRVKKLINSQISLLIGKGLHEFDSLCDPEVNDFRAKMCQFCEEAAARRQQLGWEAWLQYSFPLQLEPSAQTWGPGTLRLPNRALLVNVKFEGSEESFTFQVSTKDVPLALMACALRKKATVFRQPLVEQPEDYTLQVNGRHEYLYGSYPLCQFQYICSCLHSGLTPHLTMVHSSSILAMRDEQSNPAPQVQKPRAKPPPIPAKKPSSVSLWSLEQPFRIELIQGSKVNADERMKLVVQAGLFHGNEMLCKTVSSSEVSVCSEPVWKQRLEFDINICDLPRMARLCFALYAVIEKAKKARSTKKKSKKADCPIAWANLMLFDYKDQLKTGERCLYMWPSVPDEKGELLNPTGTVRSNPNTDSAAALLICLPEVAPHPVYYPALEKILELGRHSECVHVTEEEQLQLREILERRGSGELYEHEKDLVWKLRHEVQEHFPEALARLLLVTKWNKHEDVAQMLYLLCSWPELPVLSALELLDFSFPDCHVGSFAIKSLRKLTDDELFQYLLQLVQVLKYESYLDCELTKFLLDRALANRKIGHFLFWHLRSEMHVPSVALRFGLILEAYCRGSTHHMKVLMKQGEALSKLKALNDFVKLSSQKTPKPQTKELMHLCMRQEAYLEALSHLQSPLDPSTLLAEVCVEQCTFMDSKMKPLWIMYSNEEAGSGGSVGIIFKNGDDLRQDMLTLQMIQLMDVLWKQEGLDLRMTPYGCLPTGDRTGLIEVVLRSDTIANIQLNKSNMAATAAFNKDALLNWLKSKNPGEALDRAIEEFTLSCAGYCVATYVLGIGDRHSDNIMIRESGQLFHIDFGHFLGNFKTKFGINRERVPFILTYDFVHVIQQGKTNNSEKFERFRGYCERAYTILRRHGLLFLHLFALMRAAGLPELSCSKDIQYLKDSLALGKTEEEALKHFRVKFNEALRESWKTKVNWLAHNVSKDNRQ", "sequence (P27986 whole entry partner)": "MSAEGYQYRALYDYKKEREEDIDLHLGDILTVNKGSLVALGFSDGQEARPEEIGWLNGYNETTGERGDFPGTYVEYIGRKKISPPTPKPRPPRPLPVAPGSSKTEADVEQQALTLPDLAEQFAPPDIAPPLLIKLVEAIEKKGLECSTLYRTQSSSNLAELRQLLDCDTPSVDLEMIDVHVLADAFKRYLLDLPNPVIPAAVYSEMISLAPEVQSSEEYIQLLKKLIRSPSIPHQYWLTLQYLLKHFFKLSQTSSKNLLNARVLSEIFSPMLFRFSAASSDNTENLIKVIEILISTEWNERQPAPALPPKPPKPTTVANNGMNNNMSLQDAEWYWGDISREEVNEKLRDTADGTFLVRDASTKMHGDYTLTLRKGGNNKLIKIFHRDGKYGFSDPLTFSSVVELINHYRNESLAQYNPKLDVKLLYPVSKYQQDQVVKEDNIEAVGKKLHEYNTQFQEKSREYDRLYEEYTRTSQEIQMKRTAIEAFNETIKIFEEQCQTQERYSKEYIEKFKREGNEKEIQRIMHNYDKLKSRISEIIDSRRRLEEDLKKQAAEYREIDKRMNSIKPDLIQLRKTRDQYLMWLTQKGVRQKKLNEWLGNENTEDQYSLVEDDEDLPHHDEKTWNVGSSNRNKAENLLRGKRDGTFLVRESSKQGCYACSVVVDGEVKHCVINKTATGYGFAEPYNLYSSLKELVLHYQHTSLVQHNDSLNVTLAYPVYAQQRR", "conditions": "cited from earlier work"}, "[2]": {"tested_on": "neutrophils", "conditions": "read-out: IC50 in fMLP-induced elastase exocytosis from neutrophils; cited from earlier work"}, "[3]": {"tested_on": "CD3-induced IL-2 release", "conditions": "Lewis rats; cited from earlier work"}, "[4]": {"tested_on": "influenza virus strain PR8", "assay_type": "cell-based"}, "[5]": {"tested_on": "H7N7 A/Equine/London/1416/73 influenza virus strain", "assay_type": "in vivo", "conditions": "wild type mice, 10×LD50 H7N7 London strain; vs vehicle only; FIG. 3B"}, "[6]": {"tested_on": "HIV-1Ba-L", "assay": "HIV-1 p24 levels in supernatants of infected PHA/IL-2-activated PBMC", "assay_type": "cell-based", "conditions": "n=4 donors, PBMC cultured with 1 μM, 10 μM or 50 μM, FIG. 4"}, "[7]": {"tested_on": "PHA-activated CD4+ T cells", "assay": "CD25 expression on CD4+ T cells exposed to HIV-1 (flow cytometry)", "assay_type": "cell-based, human", "conditions": "PHA-activated CD4+ T cells exposed to HIV-1; different concentrations, n=3; FIG. 6"}, "[8]": {"tested_on": "A549 cell"}}, "note": "Entries after “also recorded” stand apart in the source; their conditions may differ. Read-outs that look alike come from different tables or passages of the source.", "data": [{"compound": "CC(c1nc2ccsc2c(=O)n1-c1ccccc1)n1cnc2c(N)ncnc21", "note": "(stereo not drawn) [Compound (IV), 2-(1-(6-amino-9H-purin-9-yl)ethyl)-3-phenylthieno[3,2-d]pyrimidin-4(3H)-one]", "values": [{"measurement": "IC50", "setting": "[1]; read-out: PI3K p110 delta IC50", "result": 40, "unit": "nM"}]}, {"compound": "Cc1noc2nc(C(C)Sc3ncnc4[nH]cnc34)n(-c3ccccc3)c(=O)c12", "note": "(stereo not drawn) [Compound (V), 6-(1-((9H-purin-6-yl)thio)ethyl)-3-methyl-5-phenylisoxazolo[5,4-d]pyrimidin-4(5H)-one]", "values": [{"measurement": "IC50", "setting": "[2]", "result": 1200, "unit": "nM"}]}, {"compound": "Cc1oc2ncn(CC(C)C)c(=O)c2c1C(=O)NCc1cccnc1", "note": "[Compound (VI), 3-isobutyl-6-methyl-4-oxo-N-(pyridin-3-ylmethyl)-3,4-dihydrofuro[2,3-d]pyrimidine-5-carboxamide]", "values": [{"measurement": "IC50", "setting": "[1]; read-out: PI3K p110 delta IC50", "result": 1200, "unit": "nM"}]}, {"compound": "COCC(O)Cn1cc(-c2ccc3c(c2)N(c2nc4c(s2)C(=O)NC(C)(C)C4)CCO3)cn1", "note": "(stereo not drawn) [Compound (XXI), 2-(6-(1-(2-hydroxy-3-methoxypropyl)-1H-pyrazol-4-yl)-2H-benzo[b][1,4]oxazin-4(3H)-yl)-6,6-dimethyl-6,7-dihydrothiazolo[5,4-c]pyridin-4(5H)-one]", "values": [{"measurement": "ED50 in a CD3-induced IL-2 release study", "setting": "[3]", "result": 5, "unit": "mg/kg"}]}, {"compound": "Nc1nc(N)c2nc(-c3cccc4[nH]ccc34)cnc2n1", "note": "[Compound (XXIX), 6-(1H-indol-4-yl)pteridine-2,4-diamine]", "values": [{"measurement": "IC50", "setting": "[1]; read-out: PI3K p110 delta IC50", "result": 64, "unit": "nM"}]}, {"compound": "COc1ncc(-c2ccc3nccc(-c4ccncc4)c3c2)cc1NS(=O)(=O)c1ccc(F)cc1F", "note": "[Compound (XXXII), 2,4-difluoro-N-(2-methoxy-5-(4-(pyridin-4-yl)quinolin-6-yl)pyridin-3-yl)-benzenesulfonamide]", "values": [{"measurement": "IC50", "setting": "[1]; read-out: apparent PI3K p110 delta IC50", "result": 0.024, "unit": "nM"}]}, {"compound": "Cc1ccccc1-n1c(Cn2cnc3c(N)ncnc32)nc2cccc(C)c2c1=O", "note": "[IC87114, 2-[(6-amino-9H-purin-9-yl)methyl]-5-methyl-3-(o-tolyl)quinazolin-4(3H)-one]", "values": [{"measurement": "influenza virus replication", "setting": "[4]", "result": "inhibits influenza virus replication"}, {"measurement": "viral mRNA production reduced compared to untreated cells", "setting": "[4]; A549 epithelial cell line infected with influenza virus, FIG. 1B: 100 μM, PR8, MOI=0.01", "result": "~25", "unit": "fold"}, {"measurement": "survival after lethal challenge", "setting": "[5]", "result": "increased survival; also recorded: protects mice lethally challenged"}, {"measurement": "reduction of 48 hour HIV-1 p24 levels", "setting": "[6]", "result": "approximately 80%"}, {"measurement": "CD25 expression", "setting": "[7]", "result": "not affected"}, {"measurement": "survival of A549 cell", "setting": "[8]", "result": "did not affect the survival"}]}]}
